According to US20030060469A1, “Use of substances that act as cascade inhibitors of the raf/mek/erk signal cascade, for producing a medicament to treat dna and rna viruses” (priority 2000, published 2003):
Like-named read-outs stand apart in the source and are kept apart here.

Legend:
[1] = mouse model; oral administration; up to a cumulating dose of 6 g/kg body weight; cited from earlier work
[2] = system: influenza A virus stem WSN-HK
MDCK cells = details: concentrations corresponding to the infection test (up to 50 μM), macroscopic examination and propidium iodide staining
[3] = system: Borna disease virus (BDV)

SMILES	signs of toxicity [1]	reduction of the number of newly generated infectious virus particles in the cell culture medium [2]	cytotoxic effect on the cells (MDCK cells)	virus foci (spreading of BDV infection) ([3]; administration of 6 μM, compared to untreated infectious reference cells)	virus foci (spreading of BDV infection) ([3]; administration of 12.5 μM)	virus foci (spreading of BDV infection) ([3]; one-time administration of 25 μM, cultivation time of 7 days)
O=C(NOCC1CC1)c1ccc(F)c(F)c1Nc1ccc(I)cc1Cl [PD184352, 2-(2-chloro-4-iodo-phenylamino)-N-cyclopropyl-methoxy-3,4-difluoro-benzamide]	without showing any significant signs of toxicity					
N#CC(=C(N)Sc1ccccc1N)C(C#N)=C(N)Sc1ccccc1N [U0126, 1,4-diamino-2,3-dicyano-1,4-bis[2-aminophenylthio]butadiene]		approx. 80%	neither solvent nor inhibitor have a significant cytotoxic effect on the cells	no difference of the virus foci	the effect is not clear anymore	no virus foci are visible
